Data published in PMC6214026, “PSMA-Oriented Target Delivery of Novel Anticancer Prodrugs: Design, Synthesis, and Biological Evaluations of Oligopeptide-Camptothecin Conjugates” (International Journal of Molecular Sciences, 2018).
≈ marks a conversion by molar mass, not a printed value. Like-named read-outs stand apart in the source and are kept apart here.

What was measured:
[1] = system: DU145 cells (non-PSMA-expressing); experiment: cells; type: cell-based, human; conditions: MTT, 72 h, mean ± SD, n = 3, read-out: IC50 DU145
Description: (§1) The cytotoxicities of PSMA-activated prodrug CPT-HT-J-ZLn and PSMA hydrolysate CPT-D-GLn were evaluated by MTT assays on PSMA-expressing (PSMA^+) cancer cell LNCaP-FGC, non-PSMA-expressing (PSMA^−) cancer cells HepG2, MCF-7, Hela, DU145, and PC-3, and normal cells MDCK, LO2, respectively, using CPT as a positive control.
(§2) The human prostate cancer cell line (LNCaP-FGC), human prostate cancer cell line (PC-3), human prostate cancer cell line (DU-145), human breast cancer cell line (MCF-7), human hepatocellular carcinoma cell line (HepG2), human cervical cancer cell line (Hela), were obtained from the Chinese Academy of Medical Sciences and Peking Union Medical College. The cultures of the cells were maintained as a monolayer in RPMI 1640 or DMEM supplemented with 10% (v/v) heat inactivated fetal bovine serum and 1% (v/v) enicillin/streptomycin (Corning, New York, NY, USA) and incubated at 37 °C in a humidified atmosphere with 5% CO2. The tested compounds were dissolved in DMSO (Sigma, St. Louis, MO, USA) and added at required concentrations to the cell culture.
(§3) The cytotoxicity of all the tested compounds was evaluated in vitro via the MTT method against PSMA-expressing LNCaP-FGC cells and non-PSMA-expressing cells HepG2, Hela, MCF-7, DU145, PC-3 cells using CPT as the positive control. Tumor cells growing in the logarithmic phase were seeded in 96-well plates at a density 3 × 10^3 cells/well and incubated overnight. The following day, cells were then treated with serial dilutions of the tested compounds for 72 h. At the end of this incubation, 20 µL of 5 mg/mL methylthiazol tetrazolium (MTT) was added to each well and incubation proceeded at 37 °C for another 4 h. After the supernatant medium was thrown away, 150 µL dimethylsulphoxide (DMSO) were added to each well and absorbance was measured at 490 nm using a plate reader (BIORAD 550 spectrophotometer, Bio-rad Life Science Development Ltd., Berkeley, CA, USA). Experiments were performed in triplicate and the values were the average of three (n = 3) independent experiments. The concentration of the compound that results in 50% growth inhibition corresponds to the IC50. Tumor cell growth inhibitory rate was calculated using Equation (1): % inhibition = (1 − Sample group OD/Control group OD) × 100%(1)

[2] = system: HepG2 cells (non-PSMA-expressing); experiment: cells; type: cell-based, human; conditions: MTT, 72 h, mean ± SD, n = 3, read-out: IC50 HepG2
Description: as §1, §2, §3

[3] = system: MCF-7 cells (non-PSMA-expressing); experiment: cells; type: cell-based, human; conditions: MTT, 72 h, mean ± SD, n = 3, read-out: IC50 MCF-7
Description: as §1, §2, §3

[4] = system: PC-3 cells (non-PSMA-expressing); experiment: cells; type: cell-based, human; conditions: MTT, 72 h, mean ± SD, n = 3, read-out: IC50 PC-3
Description: as §1, §2, §3

[5] = system: LNCaP-FGC cells (PSMA-expressing); experiment: MTT cytotoxicity assay, LNCaP-FGC; type: cell-based, human; conditions: MTT, 72 h, mean ± SD, n = 3, PSMA+, read-out: IC50 LNCaP-FGC
Description: as §1, §2, §3

[6] = system: LO2 cells; experiment: cells; type: cell-based; conditions: MTT, 72 h, normal cells, read-out: IC50 LO2
Description: as §1, §3

[7] = system: MDCK cells; experiment: cells; type: cell-based; conditions: MTT, 72 h, normal cells, read-out: IC50 MDCK
Description: as §1, §3

[8] = Aqueous (equilibrium) solubility study in PBS; type: physicochemical; conditions: pH = 7.4, 37 °C
Description: The equilibrium solubility of CPT and CPT-HT-J-ZL12 was determined in triplicate in PBS, according to the reference method with some modifications. An excess amount (~5 mg) of the tested compounds were placed into tubes, and 1 mL PBS was added to the tube. Then the tubes were incubated at 37 °C for 24 h in an ermostated oscillator (HZQ-QX, Harbin Donglian Instrument Co., Ltd., Harbin, China). After incubation, samples (0.1 mL) were removed and centrifuged at 10,000× g for 10 min with high speed centrifuge (Sorvall™ Legend™ Micro 21, Thermo Fisher Scientific, Waltham, MA, USA). […] of the supernatant was diluted, and the concentration was measured with HPLC according the method below. CPT and CPT-HT-J-ZL12 were measured by HPLC systems configured with a Waters 2695 separation module and a Waters 2695 ultraviolet (UV) detector with the following conditions: Xbridge C18 column (250 mm × 4.6 mm, […]); temperature, 25 °C; elution flow rate, 1.0 mL/min; detection wavelength, 365 nm. mobile phase, 0.2% […] in water (A) and 0.2% formic acid in acetonitrile (B) using a gradient elution of 10–60% B at 0–5.0 min, 60–80% B at 5.0–15.0 min, 80% B at 15.0–17.0 min, and 10% B at 17.1–23.0 min.

[9] = system: HeLa cells (non-PSMA-expressing); experiment: MTT cytotoxicity assay, HeLa; type: cell-based, human; conditions: 72 h, mean ± SD, n = 3
Description: as §1
The tested compounds were dissolved in DMSO (Sigma, St. Louis, MO, USA) and added at required concentrations to the cell culture.
as §3, with “experiments.” for “experiments. The concentration of the compound that results in 50% growth inhibition corresponds to the IC50. Tumor cell growth inhibitory rate was calculated using Equation (1): % inhibition = (1 − Sample group OD/Control group OD) × 100%(1)”

Structure (SMILES)	IC50 ([1]; Homo sapiens, DU-145) [µM]	IC50 ([2]; Homo sapiens, HepG2) [µM]	IC50 ([3]; Homo sapiens, MCF7) [µM]	IC50 ([4]; Homo sapiens, PC-3) [µM]	IC50 ([5]; Homo sapiens) [µM]	IC50 ([6]; Homo sapiens, L02) [µM]	IC50 ([7]; Canis lupus familiaris, MDCK) [µM]	solubility at 24 h [8] [µg/mL]	IC50 [1] [µM]	IC50 [2] [µM]	IC50 [3] [µM]	IC50 [4] [µM]	IC50 [5] [µM]	IC50 [9] [µM]	IC50 [6] [µM]	IC50 [7] [µM]
CC[C@@]1(O)C(=O)OCc2c1cc1n(c2=O)Cc2cc3ccccc3nc2-1 [CPT, Camptothecin]	0.21 ± 0.09	5.43 ± 0.81	0.16 ± 0.1	0.13 ± 0.09	0.18 ± 0.17	0.04 ± 0.01	0.02 ± 0.01	3 (≈ 8.61 µM)	–	–	–	–	–	–	–	–
CC[C@@]1(OC(=O)CCCCCNC(=O)[C@H](CCC(=O)N[C@@H](CCC(=O)N[C@@H](CCC(=O)N[C@@H](CC(=O)OC(C)(C)C)C(=O)N[C@@H](CCC(=O)OC(C)(C)C)C(=O)OC(C)(C)C)C(=O)OC(C)(C)C)C(=O)OC(C)(C)C)NC(=O)OC(C)(C)C)C(=O)OCc2c1cc1n(c2=O)Cc2cc3ccccc3nc2-1 [CPT-HT-J-L6, 1,11,16,3-tetra-tert-butyl 28-((S)-4-ethyl-3,14-dioxo-3,4,12,14-tetrahydro-1H-pyrano[3′,4′:6,7]indolizino[1,2-b]quinolin-4-yl) (3S,6S,11S,16S,21S)-6-(2-(tert-butoxy)-2-oxoethyl)-21-((tert-butoxycarbonyl)amino)-5,8,13,18,22-pentaoxo-4,7,12,17,23-pentaazaoctacosane-1,3,11,16,28-pentacarboxylate]	–	–	–	–	–	–	–	–	> 40	> 40	> 40	> 40	> 40	> 40	> 40	> 40
CC[C@@]1(OC(=O)CCCCCCCCCCCNC(=O)[C@H](CCC(=O)N[C@@H](CCC(=O)N[C@@H](CCC(=O)N[C@@H](CC(=O)OC(C)(C)C)C(=O)N[C@@H](CCC(=O)OC(C)(C)C)C(=O)OC(C)(C)C)C(=O)OC(C)(C)C)C(=O)OC(C)(C)C)NC(=O)OC(C)(C)C)C(=O)OCc2c1cc1n(c2=O)Cc2cc3ccccc3nc2-1 [CPT-HT-J-L12, 1,11,16,3-tetra-tert-butyl 34-((S)-4-ethyl-3,14-dioxo-3,4,12,14-tetrahydro-1H-pyrano[3′,4′:6,7]indolizino[1,2-b]quinolin-4-yl) (3S,6S,11S,16S,21S)-6-(2-(tert-butoxy)-2-oxoethyl)-21-((tert-butoxycarbonyl)amino)-5,8,13,18,22-pentaoxo-4,7,12,17,23-pentaazatetratriacontane-1,3,11,16,34-pentacarboxylate]	–	–	–	–	–	–	–	–	> 40	> 40	> 40	> 40	> 40	> 40	> 40	> 40
CC[C@@]1(OC(=O)CNC(=O)[C@@H](N)CCC(=O)N[C@@H](CCC(=O)N[C@@H](CCC(=O)N[C@@H](CC(=O)O)C(=O)N[C@@H](CCC(=O)O)C(=O)O)C(=O)O)C(=O)O)C(=O)OCc2c1cc1n(c2=O)Cc2cc3ccccc3nc2-1 [CPT-HT-J-ZL2, ((S)-4-((S)-4-((S)-4-amino-5-((2-(((S)-4-ethyl-3,14-dioxo-3,4,12,14-tetrahydro-1H-pyrano[3′,4′:6,7]indolizino[1,2-b]quinolin-4-yl)oxy)-2-oxoethyl)amino)-5-oxopentanamido)-4-carboxybutanamido)-4-carboxybutanoyl)-L-aspartyl-L-glutamic acid]	–	–	–	–	–	–	–	–	1.16 ± 0.28	> 40	0.11 ± 0.08	1 ± 0.1	2.04 ± 0.3	3.54 ± 2.54	1.68 ± 0.45	1.27 ± 0.3
CC[C@@]1(OC(=O)CCCNC(=O)[C@@H](N)CCC(=O)N[C@@H](CCC(=O)N[C@@H](CCC(=O)N[C@@H](CC(=O)O)C(=O)N[C@@H](CCC(=O)O)C(=O)O)C(=O)O)C(=O)O)C(=O)OCc2c1cc1n(c2=O)Cc2cc3ccccc3nc2-1 [CPT-HT-J-ZL4, (3S,6S,11S,16S,21S)-21-amino-6-(carboxymethyl)-27-(((S)-4-ethyl-3,14-dioxo-3,4,12,14-tetrahydro-1H-pyrano[3′,4′:6,7]indolizino[1,2-b]quinolin-4-yl)oxy)-5,8,13,18,22,27-hexaoxo-4,7,12,17,23-pentaazaheptacosane-1,3,11,16-tetracarboxylic acid]	–	–	–	–	–	–	–	–	9.73 ± 3.49	> 40	0.32 ± 0.01	9.98 ± 2.38	1.18 ± 0.1	> 40	> 40	9.13 ± 2.4
CC[C@@]1(OC(=O)CCCCCNC(=O)[C@@H](N)CCC(=O)N[C@@H](CCC(=O)N[C@@H](CCC(=O)N[C@@H](CC(=O)O)C(=O)N[C@@H](CCC(=O)O)C(=O)O)C(=O)O)C(=O)O)C(=O)OCc2c1cc1n(c2=O)Cc2cc3ccccc3nc2-1 [CPT-HT-J-ZL6, (3S,6S,11S,16S,21S)-21-amino-6-(carboxymethyl)-29-(((S)-4-ethyl-3,14-dioxo-3,4,12,14-tetrahydro-1H-pyrano[3′,4′:6,7]indolizino[1,2-b]quinolin-4-yl)oxy)-5,8,13,18,22,29-hexaoxo-4,7,12,17,23-pentaazanonacosane-1,3,11,16-tetracarboxylic acid]	–	–	–	–	–	–	–	–	26.3 ± 1.81	> 40	7.03 ± 3.76	40 ± 3.37	3.13 ± 0.4	> 40	> 40	19 ± 3.6
